What was measured:
[1] = target: Serine/threonine-protein kinase pim-2 (Homo sapiens) (UniProt Q9P1W9); conditions: Compound concentration 1000.0 nM
[2] = target: Mitogen-activated protein kinase 12 (Homo sapiens) (UniProt P53778); conditions: Compound concentration 1000.0 nM
[3] = target: STE20/SPS1-related proline-alanine-rich protein kinase (Homo sapiens) (UniProt Q9UEW8); conditions: Compound concentration 1000.0 nM
[4] = target: Receptor-interacting serine/threonine-protein kinase 1 (Homo sapiens) (UniProt Q13546); conditions: Compound concentration 1000.0 nM
[5] = target: Serine/threonine-protein kinase SIK1 (Homo sapiens) (UniProt P57059); conditions: Compound concentration 1000.0 nM
[6] = target: Serine/threonine-protein kinase 26 (Homo sapiens) (UniProt Q9P289); conditions: Compound concentration 1000.0 nM
[7] = target: Serine/threonine-protein kinase D3 (Homo sapiens) (UniProt O94806); conditions: Compound concentration 1000.0 nM
[8] = tested on: Mast/stem cell growth factor receptor Kit (Homo sapiens), P10721 [V559D,V654A]; conditions: Compound concentration 1000.0 nM
[9] = target: Phosphatidylinositol 4,5-bisphosphate 3-kinase catalytic subunit gamma isoform (Homo sapiens) (UniProt P48736); conditions: Compound concentration 1000.0 nM
[10] = target: Fibroblast growth factor receptor 1 (Homo sapiens) (UniProt P11362); conditions: Compound concentration 1000.0 nM
[11] = target: Uncharacterized serine/threonine-protein kinase SBK3 (Homo sapiens) (UniProt P0C264); conditions: Compound concentration 1000.0 nM
[12] = target: Serine/threonine-protein kinase BRSK1 (Homo sapiens) (UniProt Q8TDC3); conditions: Compound concentration 1000.0 nM
[13] = target: Serine/threonine-protein kinase BRSK2 (Homo sapiens) (UniProt Q8IWQ3); conditions: Compound concentration 1000.0 nM
[14] = target: Dual specificity mitogen-activated protein kinase kinase 6 (Homo sapiens) (UniProt P52564); conditions: Compound concentration 1000.0 nM
[15] = target: Death-associated protein kinase 1 (Homo sapiens) (UniProt P53355); conditions: Compound concentration 1000.0 nM
[16] = target: Serine/threonine-protein kinase PLK1 (Homo sapiens) (UniProt P53350); conditions: Compound concentration 1000.0 nM
[17] = target: Protein-tyrosine kinase 2-beta (Homo sapiens) (UniProt Q14289); conditions: Compound concentration 1000.0 nM
[18] = target: Atypical kinase COQ8B, mitochondrial (Homo sapiens) (UniProt Q96D53); conditions: Compound concentration 1000.0 nM
[19] = target: MAP kinase-activated protein kinase 2 (Homo sapiens) (UniProt P49137); conditions: Compound concentration 1000.0 nM
[20] = target: Tyrosine-protein kinase SYK (Homo sapiens) (UniProt P43405); conditions: Compound concentration 1000.0 nM
[21] = tested on: Tyrosine-protein kinase ABL1 (Homo sapiens), P00519 [T315I]; conditions: Compound concentration 1000.0 nM
[22] = target: BMP-2-inducible protein kinase (Homo sapiens) (UniProt Q9NSY1); conditions: Compound concentration 1000.0 nM
[23] = target: Cyclin-dependent kinase 4 (Homo sapiens) (UniProt P11802); conditions: Compound concentration 1000.0 nM
[24] = target: Cyclin-dependent kinase 11A (Homo sapiens) (UniProt Q9UQ88); conditions: Compound concentration 1000.0 nM
[25] = target: Megakaryocyte-associated tyrosine-protein kinase (Homo sapiens) (UniProt P42679); conditions: Compound concentration 1000.0 nM
[26] = target: Receptor-interacting serine/threonine-protein kinase 4 (Homo sapiens) (UniProt P57078); conditions: Compound concentration 1000.0 nM
[27] = target: Sodium-dependent dopamine transporter (Homo sapiens) (UniProt Q01959); conditions: Compound concentration 10.0 uM
[28] = target: Serine/threonine-protein kinase PAK 5 (Homo sapiens) (UniProt Q9P286); conditions: Compound concentration 1000.0 nM
[29] = target: Ephrin type-A receptor 5 (Homo sapiens) (UniProt P54756); conditions: Compound concentration 1000.0 nM
[30] = tested on: Mast/stem cell growth factor receptor Kit (Homo sapiens), P10721 [V559D,T670I]; conditions: Compound concentration 1000.0 nM
[31] = target: Mitogen-activated protein kinase 4 (Homo sapiens) (UniProt P31152); conditions: Compound concentration 1000.0 nM
[32] = target: Glycogen synthase kinase-3 alpha (Homo sapiens) (UniProt P49840); conditions: Compound concentration 1000.0 nM
[33] = target: Serine/threonine-protein kinase Sgk3 (Homo sapiens) (UniProt Q96BR1); conditions: Compound concentration 1000.0 nM
[34] = target: Mitogen-activated protein kinase kinase kinase 9 (Homo sapiens) (UniProt P80192); conditions: Compound concentration 1000.0 nM
[35] = target: Serine/threonine-protein kinase WNK4 (Homo sapiens) (UniProt Q96J92); conditions: Compound concentration 1000.0 nM
[36] = target: Dual specificity mitogen-activated protein kinase kinase 7 (Homo sapiens) (UniProt O14733); conditions: Compound concentration 1000.0 nM
[37] = target: Mast/stem cell growth factor receptor Kit (Homo sapiens) (UniProt P10721); conditions: Compound concentration 1000.0 nM
[38] = target: Tyrosine-protein kinase CSK (Homo sapiens) (UniProt P41240); conditions: Compound concentration 1000.0 nM
[39] = target: Activin receptor type-1 (Homo sapiens) (UniProt Q04771); conditions: Compound concentration 1000.0 nM
[40] = tested on: Epidermal growth factor receptor (Homo sapiens), P00533 [L858R]; conditions: Compound concentration 1000.0 nM
[41] = target: Transient receptor potential cation channel subfamily M member 6 (Homo sapiens) (UniProt Q9BX84); conditions: Compound concentration 1000.0 nM
[42] = tested on: eIF-2-alpha kinase GCN2 (Homo sapiens), Q9P2K8 [S808G]; conditions: Compound concentration 1000.0 nM
[43] = target: Serine/threonine-protein kinase WNK1 (Homo sapiens) (UniProt Q9H4A3); conditions: Compound concentration 1000.0 nM
[44] = target: Tyrosine-protein kinase Mer (Homo sapiens) (UniProt Q12866); conditions: Compound concentration 1000.0 nM
[45] = target: Receptor tyrosine-protein kinase erbB-2 (Homo sapiens) (UniProt P04626); conditions: Compound concentration 1000.0 nM

Receptor-interacting serine/threonine-protein kinase 1 (Homo sapiens), sequence (Q13546 whole entry): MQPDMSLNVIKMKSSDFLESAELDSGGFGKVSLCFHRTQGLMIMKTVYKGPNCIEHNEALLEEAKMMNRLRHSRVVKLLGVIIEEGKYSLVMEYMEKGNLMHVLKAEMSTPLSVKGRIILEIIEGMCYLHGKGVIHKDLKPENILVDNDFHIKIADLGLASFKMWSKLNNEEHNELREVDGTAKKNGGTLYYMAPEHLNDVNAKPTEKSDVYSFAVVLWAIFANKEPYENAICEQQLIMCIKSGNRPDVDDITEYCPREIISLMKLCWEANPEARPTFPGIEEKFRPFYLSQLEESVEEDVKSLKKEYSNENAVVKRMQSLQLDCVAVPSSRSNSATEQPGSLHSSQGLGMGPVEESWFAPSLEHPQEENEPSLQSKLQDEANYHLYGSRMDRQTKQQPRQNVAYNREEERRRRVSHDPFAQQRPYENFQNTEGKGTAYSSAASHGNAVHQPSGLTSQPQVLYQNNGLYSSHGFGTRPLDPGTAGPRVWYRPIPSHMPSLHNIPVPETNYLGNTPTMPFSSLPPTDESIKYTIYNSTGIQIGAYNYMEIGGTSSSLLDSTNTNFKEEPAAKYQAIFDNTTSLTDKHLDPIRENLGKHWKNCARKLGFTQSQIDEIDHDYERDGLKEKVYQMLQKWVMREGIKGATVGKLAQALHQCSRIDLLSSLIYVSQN
Megakaryocyte-associated tyrosine-protein kinase (Homo sapiens), sequence (P42679 whole entry): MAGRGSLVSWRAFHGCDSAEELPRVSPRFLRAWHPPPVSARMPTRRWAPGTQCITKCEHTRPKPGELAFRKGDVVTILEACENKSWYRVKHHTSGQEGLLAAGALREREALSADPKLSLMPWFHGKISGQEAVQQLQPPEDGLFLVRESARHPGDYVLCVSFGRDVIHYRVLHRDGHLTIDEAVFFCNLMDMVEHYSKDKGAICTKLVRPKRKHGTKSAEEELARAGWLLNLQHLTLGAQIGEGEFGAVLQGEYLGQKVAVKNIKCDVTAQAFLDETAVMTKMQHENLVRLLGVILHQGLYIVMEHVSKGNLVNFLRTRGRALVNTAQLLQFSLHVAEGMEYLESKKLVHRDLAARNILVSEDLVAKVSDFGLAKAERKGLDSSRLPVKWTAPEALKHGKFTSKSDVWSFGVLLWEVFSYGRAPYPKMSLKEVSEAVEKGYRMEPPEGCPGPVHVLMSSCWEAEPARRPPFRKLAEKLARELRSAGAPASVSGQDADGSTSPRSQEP
Dual specificity mitogen-activated protein kinase kinase 6 (Homo sapiens), sequence (P52564 whole entry): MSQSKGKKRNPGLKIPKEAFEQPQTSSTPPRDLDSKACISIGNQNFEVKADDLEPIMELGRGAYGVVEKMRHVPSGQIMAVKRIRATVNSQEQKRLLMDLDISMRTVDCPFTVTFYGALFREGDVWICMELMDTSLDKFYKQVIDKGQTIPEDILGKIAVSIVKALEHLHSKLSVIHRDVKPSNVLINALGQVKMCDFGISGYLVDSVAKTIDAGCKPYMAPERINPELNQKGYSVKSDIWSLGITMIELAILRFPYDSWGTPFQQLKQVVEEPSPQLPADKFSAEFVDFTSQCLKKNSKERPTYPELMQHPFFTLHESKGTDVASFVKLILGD
Mast/stem cell growth factor receptor Kit (Homo sapiens), P10721 [V559D,V654A], sequence (P10721 whole entry V559D/V654A, canonical isoform): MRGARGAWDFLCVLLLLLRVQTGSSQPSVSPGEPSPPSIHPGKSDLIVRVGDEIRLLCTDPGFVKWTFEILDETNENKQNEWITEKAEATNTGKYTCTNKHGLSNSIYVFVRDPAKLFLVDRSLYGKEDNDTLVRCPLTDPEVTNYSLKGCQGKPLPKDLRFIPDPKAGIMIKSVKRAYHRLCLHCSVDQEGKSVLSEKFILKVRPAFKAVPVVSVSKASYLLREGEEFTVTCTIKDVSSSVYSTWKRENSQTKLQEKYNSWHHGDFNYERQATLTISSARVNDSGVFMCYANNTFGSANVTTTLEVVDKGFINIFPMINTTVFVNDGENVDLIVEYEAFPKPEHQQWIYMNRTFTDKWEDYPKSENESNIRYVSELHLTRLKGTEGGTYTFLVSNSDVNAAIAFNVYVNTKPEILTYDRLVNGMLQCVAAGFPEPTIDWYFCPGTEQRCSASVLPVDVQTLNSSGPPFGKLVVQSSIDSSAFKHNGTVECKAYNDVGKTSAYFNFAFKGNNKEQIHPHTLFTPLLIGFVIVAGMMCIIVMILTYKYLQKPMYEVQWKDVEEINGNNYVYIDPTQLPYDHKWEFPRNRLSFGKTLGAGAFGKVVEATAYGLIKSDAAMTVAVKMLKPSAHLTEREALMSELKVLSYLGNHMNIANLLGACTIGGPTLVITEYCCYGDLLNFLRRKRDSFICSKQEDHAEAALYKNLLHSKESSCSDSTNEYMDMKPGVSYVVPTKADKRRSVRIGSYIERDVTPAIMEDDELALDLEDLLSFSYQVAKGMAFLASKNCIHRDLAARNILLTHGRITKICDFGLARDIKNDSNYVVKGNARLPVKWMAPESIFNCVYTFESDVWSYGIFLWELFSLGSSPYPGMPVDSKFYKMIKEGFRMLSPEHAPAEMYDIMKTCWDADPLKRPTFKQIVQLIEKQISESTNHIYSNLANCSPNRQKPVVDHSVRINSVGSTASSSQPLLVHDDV
Mitogen-activated protein kinase 4 (Homo sapiens), sequence (P31152 whole entry): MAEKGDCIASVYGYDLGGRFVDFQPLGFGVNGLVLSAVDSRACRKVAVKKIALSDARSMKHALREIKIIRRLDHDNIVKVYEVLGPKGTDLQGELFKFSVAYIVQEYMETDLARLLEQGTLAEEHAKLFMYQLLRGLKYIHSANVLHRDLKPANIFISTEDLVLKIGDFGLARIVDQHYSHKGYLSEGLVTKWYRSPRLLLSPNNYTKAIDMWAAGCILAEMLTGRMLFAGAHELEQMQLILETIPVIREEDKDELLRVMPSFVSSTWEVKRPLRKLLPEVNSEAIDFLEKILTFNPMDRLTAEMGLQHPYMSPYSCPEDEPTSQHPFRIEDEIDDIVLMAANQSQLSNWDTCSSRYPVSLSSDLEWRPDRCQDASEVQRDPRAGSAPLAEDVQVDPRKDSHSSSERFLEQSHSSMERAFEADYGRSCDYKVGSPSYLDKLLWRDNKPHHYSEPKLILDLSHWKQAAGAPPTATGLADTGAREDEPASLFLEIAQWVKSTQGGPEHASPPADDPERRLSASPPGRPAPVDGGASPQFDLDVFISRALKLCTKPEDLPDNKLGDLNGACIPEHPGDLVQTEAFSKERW
Serine/threonine-protein kinase BRSK1 (Homo sapiens), sequence (Q8TDC3 whole entry): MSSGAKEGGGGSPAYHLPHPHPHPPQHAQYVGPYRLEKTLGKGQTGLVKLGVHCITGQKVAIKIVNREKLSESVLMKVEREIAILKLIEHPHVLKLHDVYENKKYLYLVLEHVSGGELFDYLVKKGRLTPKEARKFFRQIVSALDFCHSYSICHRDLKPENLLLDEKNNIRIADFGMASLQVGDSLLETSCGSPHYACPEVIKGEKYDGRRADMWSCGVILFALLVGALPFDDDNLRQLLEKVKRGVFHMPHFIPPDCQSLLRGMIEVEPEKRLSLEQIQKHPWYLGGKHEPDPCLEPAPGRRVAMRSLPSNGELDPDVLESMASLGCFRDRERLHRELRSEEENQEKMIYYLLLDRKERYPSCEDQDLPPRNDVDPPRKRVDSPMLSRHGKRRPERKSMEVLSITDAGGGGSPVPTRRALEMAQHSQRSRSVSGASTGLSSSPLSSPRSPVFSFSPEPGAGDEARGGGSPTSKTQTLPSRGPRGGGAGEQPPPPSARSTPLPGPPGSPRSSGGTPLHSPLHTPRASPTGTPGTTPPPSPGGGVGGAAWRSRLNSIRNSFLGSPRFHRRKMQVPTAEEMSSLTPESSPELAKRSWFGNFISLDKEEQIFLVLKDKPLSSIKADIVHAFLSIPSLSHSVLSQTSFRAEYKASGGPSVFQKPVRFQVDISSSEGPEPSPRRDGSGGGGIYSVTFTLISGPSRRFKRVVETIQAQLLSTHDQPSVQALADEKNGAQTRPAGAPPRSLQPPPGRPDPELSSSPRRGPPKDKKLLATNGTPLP
Serine/threonine-protein kinase PLK1 (Homo sapiens), sequence (P53350 whole entry): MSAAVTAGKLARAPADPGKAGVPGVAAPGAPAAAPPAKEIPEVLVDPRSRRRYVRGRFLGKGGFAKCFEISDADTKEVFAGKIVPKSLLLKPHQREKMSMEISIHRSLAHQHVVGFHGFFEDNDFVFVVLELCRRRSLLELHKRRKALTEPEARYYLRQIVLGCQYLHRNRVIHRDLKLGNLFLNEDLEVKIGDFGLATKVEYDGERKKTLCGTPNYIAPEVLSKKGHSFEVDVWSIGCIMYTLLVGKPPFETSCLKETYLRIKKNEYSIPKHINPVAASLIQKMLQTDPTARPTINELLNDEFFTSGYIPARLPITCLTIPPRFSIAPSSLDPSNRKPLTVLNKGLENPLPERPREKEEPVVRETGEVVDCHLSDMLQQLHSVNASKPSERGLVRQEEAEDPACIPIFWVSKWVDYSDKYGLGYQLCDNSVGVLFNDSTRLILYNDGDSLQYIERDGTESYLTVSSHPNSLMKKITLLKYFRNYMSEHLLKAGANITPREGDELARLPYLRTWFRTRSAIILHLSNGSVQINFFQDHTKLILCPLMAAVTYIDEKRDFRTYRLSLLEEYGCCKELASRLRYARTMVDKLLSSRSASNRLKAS
Activin receptor type-1 (Homo sapiens), sequence (Q04771 whole entry): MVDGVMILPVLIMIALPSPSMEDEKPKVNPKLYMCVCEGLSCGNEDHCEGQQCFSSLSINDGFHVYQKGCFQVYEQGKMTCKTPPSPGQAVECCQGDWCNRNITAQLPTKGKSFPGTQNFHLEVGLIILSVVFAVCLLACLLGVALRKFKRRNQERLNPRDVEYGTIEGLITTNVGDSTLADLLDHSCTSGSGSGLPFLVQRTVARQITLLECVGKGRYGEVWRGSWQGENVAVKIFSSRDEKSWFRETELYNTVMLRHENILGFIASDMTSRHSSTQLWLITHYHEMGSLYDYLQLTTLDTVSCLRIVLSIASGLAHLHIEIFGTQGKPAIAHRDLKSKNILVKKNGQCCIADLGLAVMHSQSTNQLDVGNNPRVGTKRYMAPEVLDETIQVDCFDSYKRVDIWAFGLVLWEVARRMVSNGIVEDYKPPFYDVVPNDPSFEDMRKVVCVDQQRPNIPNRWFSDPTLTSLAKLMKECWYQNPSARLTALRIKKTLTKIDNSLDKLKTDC

Compound: O=c1nc(-c2ccccn2)sc2ccccc12 [BTZO-1]
- residual activity [1]: 97%
- residual activity [2]: 58%
- residual activity [3]: 100%
- residual activity [4]: 83%
- residual activity [5]: 95%
- residual activity [6]: 100%
- residual activity [7]: 81%
- residual activity [8]: 100%
- residual activity [9]: 100%
- residual activity [10]: 100%
- residual activity [11]: 100%
- residual activity [12]: 91%
- residual activity [13]: 100%
- residual activity [14]: 100%
- residual activity [15]: 100%
- residual activity [16]: 100%
- residual activity [17]: 100%
- residual activity [18]: 60%
- residual activity [19]: 100%
- residual activity [20]: 97%
- residual activity [21]: 100%
- residual activity [22]: 86%
- residual activity [23]: 90%
- residual activity [24]: 94%
- residual activity [25]: 100%
- residual activity [26]: 84%
- inhibition [27]: -3.83%
- residual activity [28]: 87%
- residual activity [29]: 94%
- residual activity [30]: 83%
- residual activity [31]: 100%
- residual activity [32]: 82%
- residual activity [33]: 100%
- residual activity [34]: 85%
- residual activity [35]: 100%
- residual activity [36]: 93%
- residual activity [37]: 79%
- residual activity [38]: 100%
- residual activity [39]: 79%
- residual activity [40]: 81%
- residual activity [41]: 77%
- residual activity [42]: 47%
- residual activity [43]: 100%
- residual activity [44]: 82%
- residual activity [45]: 65%

Compound: O=C1NC(c2ccccn2)Sc2ccccc21 (stereo not given) [BTZO-4]
- residual activity [1]: 88%
- residual activity [2]: 51%
- residual activity [3]: 89%
- residual activity [4]: 81%
- residual activity [5]: 88%
- residual activity [6]: 80%
- residual activity [7]: 100%
- residual activity [8]: 87%
- residual activity [9]: 91%
- residual activity [10]: 85%
- residual activity [11]: 86%
- residual activity [12]: 76%
- residual activity [13]: 100%
- residual activity [14]: 100%
- residual activity [15]: 100%
- residual activity [16]: 100%
- residual activity [17]: 76%
- residual activity [18]: 67%
- residual activity [19]: 100%
- residual activity [20]: 75%
- residual activity [21]: 100%
- residual activity [22]: 88%
- residual activity [23]: 81%
- residual activity [24]: 100%
- residual activity [25]: 100%
- residual activity [26]: 72%
- inhibition [27]: -2.05%
- residual activity [28]: 94%
- residual activity [29]: 85%
- residual activity [30]: 87%
- residual activity [31]: 86%
- residual activity [32]: 73%
- residual activity [33]: 100%
- residual activity [34]: 88%
- residual activity [35]: 100%
- residual activity [36]: 87%
- residual activity [37]: 89%
- residual activity [38]: 100%
- residual activity [39]: 82%
- residual activity [40]: 86%
- residual activity [41]: 64%
- residual activity [42]: 42%
- residual activity [43]: 91%
- residual activity [44]: 75%
- residual activity [45]: 71%
